SMILES strings stand for the structures. pEC50: −log10 of the molar value. A value given as a limit tells only on which side of the number the result lay.

For this test, the target named is T1, MRGPRX2 LAD2 (Homo sapiens, UniProt Q96LB1).
T1 construct: host or cells: LAD2 human mast cells
T1 sequence (Q96LB1 1-330): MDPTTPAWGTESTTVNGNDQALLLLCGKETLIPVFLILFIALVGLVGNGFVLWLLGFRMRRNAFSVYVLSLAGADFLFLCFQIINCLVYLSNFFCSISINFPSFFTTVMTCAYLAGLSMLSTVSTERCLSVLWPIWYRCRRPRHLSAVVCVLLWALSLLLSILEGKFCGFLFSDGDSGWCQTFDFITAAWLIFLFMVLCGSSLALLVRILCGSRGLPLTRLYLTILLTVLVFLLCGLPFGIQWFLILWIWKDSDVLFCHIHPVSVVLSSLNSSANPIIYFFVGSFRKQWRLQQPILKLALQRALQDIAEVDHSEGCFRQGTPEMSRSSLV
Put plainly: LAD2 β-hexosaminidase release assay (degranulation), Cortistatin-14 at EC75. Type of test: cell-based. Particulars: LAD2 cells; 1 hour compound incubation, Cortistatin-14 at EC75 for 30 minutes; percent degranulation (β-hexosaminidase). The method, then: LAD2 cells obtained from the NIH were cultured in StemPro34 (Gibco) serum-free media supplemented with GlutaMax, penicillin and streptomycin, and 100 ng/mL SCF (Invitrogen). Cells were maintained in a 37° C., 5% CO2 humidified incubator at a concentration of 2-5E5 cells/mL, with hemidepletion once a week.
One day prior to the assay, cells were starved of SCF at a concentration of 2.3E5 cells/mL. On the day of the assay cells were washed twice in Tyrode's Buffer containing 0.04% BSA (assay buffer) and plated in a 96 well-v-bottom assay plate at 20,000 cells per well in 80 μL of assay buffer. Compounds were solubilized at 10 mM DMSO and added as a 10-fold overconcentrated 8-point curve in assay buffer in a volume of 10 μL using the JANUS liquid handler. Assay plates were incubated for 1 hour at 37° C. Cortistatin-14 was diluted in assay buffer to […] its predetermined EC75 and added to the assay plates in a volume of 10 μL. Assay plates were incubated at 37° C. for 30 minutes. After incubation, cells were pelleted and 50 μL of supernatant from each well was transferred to a 96 well flat bottom plate containing 100 μL of substrate solution (3.5 mg/mL p-Nitrophenyl-N-acetyl-β-D-glucosaminide (Sigma Aldrich) in 40 mM Citrate Buffer (Thermo Fisher)). The remaining cell pellets were lysed with 150 μL of 0.1% Triton-X-100 and mixed thoroughly. 50 μL of lysate was transferred to a 96-well flat bottom plate containing 100 μL of substrate solution. Plates with supernatants and lysates were incubated at 37° C. for 90 minutes prior to addition of 50 μL of 400 mM Glycine buffer (pH 10.7). The plates were read on a Perkin Elmer Envision plate reader at an Abs of 405 nanometers. Percent degranulation was calculated and Xlfit was used to calculate an EC50 value for each compound using a 4-parameter logistic curve fitting model. EC50 ranges are reported as follows: A<100 nM; B 0.1-1 μM; C>1 μM.
Consider `CS(=O)(=O)Nc1cccc(C(=O)N[C@H]2C[C@@H](Nc3cc(C(F)(F)F)nc4ccc(Cl)cc34)CN(C(=O)C(F)F)C2)c1` [Example 72], for which the pEC50 was > 7.00.

Take `O=C(N[C@H]1C[C@@H](Nc2cc(C(F)(F)F)nc3ccc(Cl)cc23)CN(C(=O)[C@H]2CC2(F)F)C1)c1cn(CC(F)(F)F)nc1C1CC1` [Example 74]: the pEC50 was > 7.00.

Consider `O=C(N[C@H]1C[C@@H](Nc2cc(C(F)(F)F)nc3ccc(Cl)cc23)CN(C(=O)[C@@H]2CC2(F)F)C1)c1cn(CC(F)(F)F)nc1C1CC1` [Example 75], for which the negative-log EC50 (pEC50) is > 7.00.

The compound `CC(C)(O)Cn1cc(C(=O)N[C@H]2C[C@@H](Nc3cc(C(F)(F)F)nc4ccc(Cl)cc34)CN(C3CC(F)(F)C3)C2)c(Cl)n1` [Example 76] showed a negative-log EC50 (pEC50) of 6.00 to 7.00.

Take `CC(C)(O)Cn1cc(C(=O)N[C@H]2C[C@@H](Nc3cc(C(F)(F)F)nc4ccc(Cl)cc34)CN(C(=O)[C@H]3CC3(F)F)C2)c(Cl)n1` [Example 78]: the pEC50 is > 7.00.

With `COCC(F)(F)C(=O)N1C[C@@H](NC(=O)c2cn(CC(C)(C)O)nc2Cl)C[C@@H](Nc2cc(C(F)(F)F)nc3ccc(Cl)cc23)C1` [Example 79], the negative logarithm of the EC50 (pEC50) is > 7.00.

`CC(C)(O)Cn1cc(C(=O)N[C@H]2C[C@@H](Nc3cc(C(F)(F)F)nc4ccc(Cl)cc34)CN(C(=O)COC(F)(F)F)C2)c(Cl)n1` [Example 80]: the negative logarithm of the EC50 (pEC50) was > 7.00.

Turning to `CC(C)(O)Cn1cc(C(=O)N[C@H]2C[C@@H](Nc3cc(C(F)(F)F)nc4ccc(Cl)cc34)CN(C(=O)C3(F)CC3)C2)c(Cl)n1` [Example 81], the pEC50 is > 7.00.

`CC(C)(O)Cn1cc(C(=O)N[C@H]2C[C@@H](Nc3cc(C(F)(F)F)nc4ccc(Cl)cc34)CN(C(=O)C3(C(F)(F)F)CC3)C2)c(Cl)n1` [Example 82]: the pEC50 was > 7.00.

As to `CC(C)(O)Cn1cc(C(=O)N[C@H]2C[C@@H](Nc3c(F)c(C(F)(F)F)nc4ccc(Cl)cc34)CN(C(=O)C(C)(C)F)C2)c(Cl)n1` [Example 83], the negative-log EC50 (pEC50) is > 7.00.

On to `CC(C)(O)Cn1cc(C(=O)N[C@H]2C[C@@H](Nc3cc(C(F)(F)F)nc4ccc(Cl)cc34)CN(C(=O)OCC(F)(F)F)C2)c(Cl)n1` [Example 84], for which the pEC50 was > 7.00.

For `CC(C)(O)Cn1cc(C(=O)N[C@H]2C[C@@H](Nc3cc(C(F)(F)F)nc4ccc(Cl)cc34)CN(C(=O)c3ccccc3F)C2)c(Cl)n1` [Example 85], the negative-log EC50 (pEC50) was > 7.00.

As to `CC(C)(O)Cn1cc(C(=O)N[C@H]2C[C@@H](Nc3cc(C(F)(F)F)nc4ccc(Cl)cc34)CN(C(=O)[C@H](NC(=O)C(F)(F)F)c3ccccc3)C2)c(Cl)n1` [Example 86], the negative-log EC50 (pEC50) was > 7.00.

For the compound `COCC(F)(F)C(=O)N1C[C@@H](NC(=O)c2cn(CC(F)(F)F)nc2C2CC2)C[C@@H](Nc2cc(C(F)(F)F)nc3ccc(Cl)cc23)C1` [Example 87], the negative-log EC50 (pEC50) is > 7.00.

As to `CC(C)(O)Cn1cc(C(=O)N[C@H]2C[C@@H](Nc3cc(C(F)(F)F)nc4ccc(Cl)cc34)CN(C(=O)C(F)(F)c3ccc(C#N)cc3)C2)c(Cl)n1` [Example 88], the pEC50 is > 7.00.

As to `O=C(N[C@H]1C[C@@H](Nc2cc(C(F)(F)F)nc3ccc(Cl)cc23)CN(C(=O)C(F)(F)F)C1)c1cn(CC(F)(F)F)nc1C1CC1` [Example 89], the pEC50 was > 7.00.

As to `O=C(N[C@H]1C[C@@H](Nc2cc(C(F)(F)F)nc3ccc(Cl)cc23)CN(C(=O)C(F)F)C1)c1cn(CC(F)(F)F)nc1C1CC1` [Example 90], the pEC50 was > 7.00.

For `O=C(N[C@H]1C[C@@H](Nc2cc(C(F)(F)F)nc3ccc(Cl)cc23)CN(C2COC2)C1)c1cn(CC(F)(F)F)nc1C1CC1` [Example 91], the pEC50 is 6.00 to 7.00.

In the case of `O=C(N[C@H]1C[C@@H](Nc2cc(C(F)(F)F)nc3ccc(Cl)cc23)CN(c2ccccn2)C1)c1cn(CC(F)(F)F)nc1C1CC1` [Example 92], the negative logarithm of the EC50 (pEC50) is > 7.00.

For `Cn1nnc(N2C[C@@H](NC(=O)c3cn(CC(F)(F)F)nc3C3CC3)C[C@@H](Nc3cc(C(F)(F)F)nc4ccc(Cl)cc34)C2)n1` [Example 93], the pEC50 is > 7.00.

As for `CC(=O)N1C[C@@H](NC(=O)c2c[nH]c3ncccc23)C[C@@H](Nc2cc(C(F)(F)F)nc3ccc(Cl)cc23)C1` [Example 94], the pEC50 was > 7.00.

On to `CC(=O)N1C[C@@H](NC(=O)c2cn(CC(C)(C)O)nc2C(F)(F)F)C[C@@H](Nc2cc(C(F)(F)F)nc3ccc(Cl)cc23)C1` [Example 95], for which the negative-log EC50 (pEC50) is > 7.00.

As for `CC(=O)N1C[C@@H](NC(=O)c2cn(CC(F)(F)F)nc2C(F)(F)F)C[C@@H](Nc2cc(C(F)(F)F)nc3ccc(Cl)cc23)C1` [Example 96], the negative logarithm of the EC50 (pEC50) is > 7.00.

Consider `CC(=O)N1C[C@@H](NC(=O)c2c[nH]c3cccnc23)C[C@@H](Nc2cc(C(F)(F)F)nc3ccc(Cl)cc23)C1` [Example 97], for which the negative-log EC50 (pEC50) was > 7.00.

Take `CC(=O)N1C[C@@H](NC(=O)c2cn(CC(C)(C)O)c3ncccc23)C[C@@H](Nc2cc(C(F)(F)F)nc3ccc(Cl)cc23)C1` [Example 98]: the negative-log EC50 (pEC50) is > 7.00.

In the case of `CC(=O)N1C[C@@H](NC(=O)c2cn(CC(F)F)nc2C(F)(F)F)C[C@@H](Nc2cc(C(F)(F)F)nc3ccc(Cl)cc23)C1` [Example 99], the negative logarithm of the EC50 (pEC50) is > 7.00.

In the case of `CC(=O)N1C[C@@H](NC(=O)c2cn(CC(F)(F)F)nc2C2CCC2)C[C@@H](Nc2cc(C(F)(F)F)nc3ccc(Cl)cc23)C1` [Example 100], the pEC50 is > 7.00.

With `CC(=O)N1C[C@@H](NC(=O)c2cn(CS(C)(=O)=O)nc2Cl)C[C@@H](Nc2cc(C(F)(F)F)nc3ccc(Cl)cc23)C1` [Example 101], the pEC50 was > 7.00.

Turning to `COCc1nn(CC(F)(F)F)cc1C(=O)N[C@H]1C[C@@H](Nc2cc(C(F)(F)F)nc3ccc(Cl)cc23)CN(C(C)=O)C1` [Example 102], the negative-log EC50 (pEC50) is > 7.00.

Consider `CC(=O)N1C[C@@H](NC(=O)c2cn(CC(C)(C)O)nc2C(F)F)C[C@@H](Nc2cc(C(F)(F)F)nc3ccc(Cl)cc23)C1` [Example 103], for which the pEC50 was > 7.00.

With `CC(=O)N1C[C@@H](NC(=O)c2cn(CC(C)(C)O)nc2C)C[C@@H](Nc2cc(C(F)(F)F)nc3ccc(Cl)cc23)C1` [Example 104], the pEC50 is > 7.00.

With `CC(=O)N1C[C@@H](NC(=O)c2cn(C3CCS(=O)(=O)CC3)nc2C(F)(F)F)C[C@@H](Nc2cc(C(F)(F)F)nc3ccc(Cl)cc23)C1` [Example 106], the negative logarithm of the EC50 (pEC50) was > 7.00.

For the compound `CC(=O)N1C[C@@H](NC(=O)c2cn(C3CC(F)(F)C3)nc2C(F)F)C[C@@H](Nc2cc(C(F)(F)F)nc3ccc(Cl)cc23)C1` [Example 108], the negative-log EC50 (pEC50) was > 7.00.

Regarding `CC(=O)N1C[C@@H](NC(=O)c2cn(CC(F)(F)F)nc2C2CC2)C[C@@H](Nc2cc(C(F)(F)F)nc3ccc(Cl)cc23)C1` [Example 109], the negative logarithm of the EC50 (pEC50) is > 7.00.

In the case of `CC(=O)N1C[C@@H](NC(=O)c2cn(CC(F)F)nc2C2CC2)C[C@@H](Nc2cc(C(F)(F)F)nc3ccc(Cl)cc23)C1` [Example 110], the negative logarithm of the EC50 (pEC50) is > 7.00.

In the case of `CC(=O)N1C[C@@H](NC(=O)c2ccc3[nH]ccc3c2)C[C@@H](Nc2cc(C(F)(F)F)nc3ccc(Cl)cc23)C1` [Example 111], the pEC50 was > 7.00.

As for `CC(=O)N1C[C@@H](NC(=O)c2ccc3cc[nH]c3c2)C[C@@H](Nc2cc(C(F)(F)F)nc3ccc(Cl)cc23)C1` [Example 112], the negative logarithm of the EC50 (pEC50) is > 7.00.

Turning to `CC(=O)N1C[C@@H](NC(=O)c2cn(CC(F)(F)F)cc2C(F)(F)F)C[C@@H](Nc2cc(C(F)(F)F)nc3ccc(Cl)cc23)C1` [Example 113], the pEC50 was > 7.00.

`O=C(N[C@H]1C[C@@H](Nc2cc(C(F)(F)F)nc3ccc(Cl)cc23)CN(C(=O)C(F)F)C1)c1cn(C[C@@H](O)C(F)(F)F)nc1Cl` [Example 116]: the negative-log EC50 (pEC50) is > 7.00.

As for `Cc1nn(CC(C)(C)O)cc1C(=O)N[C@H]1C[C@@H](Nc2cc(C(F)(F)F)nc3ccc(Cl)cc23)CN(C(=O)C(F)F)C1` [Example 117], the negative logarithm of the EC50 (pEC50) is > 7.00.

In the case of `CC(C)(O)Cn1cc(C(=O)N[C@H]2C[C@@H](Nc3cc(C(F)(F)F)nc4ccc(Cl)cc34)CN(C(=O)C(F)F)C2)c(Cl)n1` [Example 118], the pEC50 was > 7.00.

`O=C(N[C@H]1C[C@@H](Nc2cc(C(F)(F)F)nc3ccc(Cl)cc23)CN(C(=O)C(F)F)C1)c1cn(CC2(O)CCC2)nc1Cl` [Example 119]: the negative logarithm of the EC50 (pEC50) is > 7.00.

As for `O=C(N[C@H]1C[C@@H](Nc2cc(C(F)(F)F)nc3ccc(Cl)cc23)CN(C(=O)C(F)F)C1)c1cn(C[C@H](O)C(F)F)nc1Cl` [Example 120], the pEC50 was > 7.00.

By pEC50 is commonly meant −log10 of the EC50, conventionally taken in molar units. A high value points to a small EC50.

(Values after patent US20250313569A1, “Pharmaceutical Compounds And Compositions As Modulators Of MAS-Related G-Protein Receptor X2” (Enanta Pharmaceuticals, Inc., priority 2024, published 2025).)
